Test [1] concerns Human primary epidermal keratinocytes (ATCC PCS 200-011). As to the kind of experiment: MTT cell viability assay of keratinocytes after UVB irradiation. In kind it is cell-based. Conditions: CBD 1 μM, 4 μM and 8 μM for 1 hour before UVB, 10 seconds (approximately 60 mJ/cm^2), cells not treated with CBD 17%. How it is done:
(§1) Human primary epidermal melanocytes (ATCC PCS200-013) and keratinocytes (ATCC PCS 200-011) cell-lines were cultured using serum free complete growth media (ATCC PCS 200-030). Cells were cultured at 37 C.° with 5% CO2. Cells were grown to 80% confluence before being washed with PBS buffer (37° C.) and trypsinized with EDTA-trypsin. A small aliquot of cells was stained with Trypan blue and counted using a haemocytometer. The remaining cells were plated in a 24 well plate with 300 uL of complete growth media (ATCC) for UV experimentation. Approximately 27*10^3 cells were added to each well. Twenty-four hours after inoculation, individual wells were treated with one of three different concentrations of CBD isolate (CBD Brands, Jupiter, Fla.) or left untreated (control). The concentrations of CBD used were 1 μM, 4 μM and 8 μM, respectively.
After CBD treatment for 1 hour, all cells were washed and with chilled (4° C.) PBS buffer. […] Exposure times were determined prior to the experiment, empirically, by exposing different wells to increasing UV exposure time and next conducting an MTT assay. […] The chosen exposure time was based on the exposure time that led to greater than 40% cell viability versus untreated cells determined by MTT assay. […] After exposure the effect of CBD on cell viability was evaluated by an MTT assay. […]
In general terms: Tetrazolium assays rely on reduction of a dye to a coloured formazan, in cell work by metabolically active cells.

Test [2] relates to Human primary epidermal melanocytes (ATCC PCS200-013). As to the kind of experiment: MTT cell viability assay of melanocytes after UVB irradiation. In kind it is cell-based. The following applies: Melanocyte, light or radiation study, approximately 60 mJ/cm^2, 0 μM control 16%, read-out: viability after UV irradiation. The protocol:
as §1
After CBD treatment for 1 hour, all cells were washed and with chilled (4° C.) PBS buffer. UV exposure experiments were conducted in chilled PBS buffer to avoid heat stress. Cells were irradiated with UVB light (Dermalight 80, UVB lamp). The distance of the lamp to the wells of the plate was kept constant at 3 cm. Exposure times were determined prior to the experiment, empirically, by exposing different wells to increasing UV exposure time and next conducting an MTT assay. […] The chosen exposure time was based on the exposure time that led to greater than 40% cell viability versus untreated cells determined by MTT assay. CBD treated cells were exposed to UV light for this predetermined time of 10 seconds (approximately 60 mJ/cm^2). After exposure the effect of CBD on cell viability was evaluated by an MTT assay. Control cells were cultured in parallel with no CBD treatment, but underwent UVB irradiation.

The structures appear in SMILES notation.

Broadly, the viability is a per cent measure of how many cells are alive, often set against a control.

Consider `C=C(C)[C@@H]1CCC(C)=C[C@H]1c1c(O)cc(CCCCC)cc1O` [CBD, cannabidiol], for which the “cell viability after irradiation with UVB” value in test [1] is listed as “dose dependent increase in cell viability”. For the same molecule, the viability at 1 µM in test [2] (1 μM CBD for 1 hour before UVB) came out at 48%. For the same molecule, the viability at 4 µM in test [2] (4 μM CBD for 1 hour before UVB) amounted to 65%. Moreover, the viability at 8 µM in test [2] (8 μM CBD for 1 hour before UVB) amounted to 12%.
